# Experimental data published in ChEMBL document CHEMBL1201861, “Genomics of Drug Sensitity in Cancer screening data, Wellcome Trust Sanger Institute”.
# Columns and labels:
# Test in all cases: cells
# Format in all cases: functional, cell-based, Homo sapiens
# [1] = tested on: GCIY;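 note: growth inhibition of the human GCIY cell line, read out by a cell viability assay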
# Description: SANGER: Inhibition of human GCIY cell growth in a cell viability assay.
# [2] = tested on: NCI-H747;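 note: growth inhibition of human NCI-H747 cells, read out by a cell viability assay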
# Description: SANGER: Inhibition of human NCI-H747 cell growth in a cell viability assay.
# [3] = tested on: TE-5;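 note: inhibition of cell growth, read out by a cell viability assay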
# Description: SANGER: Inhibition of human TE-5 cell growth in a cell viability assay.
# [4] = tested on: COLO-824
# Description: SANGER: Inhibition of human COLO-824 cell growth in a cell viability assay.
# [5] = tested on: SW 962;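 note: growth inhibition of human SW962 cells, read out by a cell viability assay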
# Description: SANGER: Inhibition of human SW962 cell growth in a cell viability assay.
# [6] = tested on: SK-MEL-1;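 note: growth inhibition of human SK-MEL-1 cells, read out by a cell viability assay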
# Description: SANGER: Inhibition of human SK-MEL-1 cell growth in a cell viability assay.
# [7] = tested on: NCI-H1299;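 note: growth inhibition of human NCI-H1299 cells, read out by a cell viability assay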
# Description: SANGER: Inhibition of human NCI-H1299 cell growth in a cell viability assay.
# [8] = tested on: NB12;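 note: growth inhibition of human NB12 cells, read out by a cell viability assay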
# Description: SANGER: Inhibition of human NB12 cell growth in a cell viability assay.
# [9] = tested on: OVCAR-4;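 note: growth inhibition of human OVCAR-4 cells, measured with a cell viability assay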
# Description: SANGER: Inhibition of human OVCAR-4 cell growth in a cell viability assay.
# [10] = tested on: SK-N-FI;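 note: cell viability assay measuring growth inhibition of human SK-N-FI cells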
# Description: SANGER: Inhibition of human SK-N-FI cell growth in a cell viability assay.
# [11] = tested on: NCI-H1395;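 note: cell viability assay read-out quantifying reduced proliferation of human NCI-H1395 cells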
# Description: SANGER: Inhibition of human NCI-H1395 cell growth in a cell viability assay.
# [12] = tested on: L-363
# Description: SANGER: Inhibition of human L-363 cell growth in a cell viability assay.
# [13] = tested on: L-428
# Description: SANGER: Inhibition of human L-428 cell growth in a cell viability assay.
# [14] = tested on: A101D;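 note: growth inhibition of the cell line, measured with a viability assay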
# Description: SANGER: Inhibition of human A101D cell growth in a cell viability assay.
# [15] = tested on: GOTO;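 note: growth inhibition of GOTO cells, read out by a cell viability assay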
# Description: SANGER: Inhibition of human GOTO cell growth in a cell viability assay.
# [16] = tested on: ES4;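 note: growth inhibition of human ES4 cells, read out by a cell viability assay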
# Description: SANGER: Inhibition of human ES4 cell growth in a cell viability assay.
# [17] = tested on: HCC2157;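 note: growth inhibition of the cancer cell line, read out as cell viability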
# Description: SANGER: Inhibition of human HCC2157 cell growth in a cell viability assay.
# [18] = tested on: MPP-89;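 note: growth inhibition of human MPP-89 cells, read out with a cell viability assay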
# Description: SANGER: Inhibition of human MPP-89 cell growth in a cell viability assay.
# [19] = tested on: NB6;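 note: growth inhibition of NB6 cells, read out by a cell viability assay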
# Description: SANGER: Inhibition of human NB6 cell growth in a cell viability assay.
# [20] = tested on: NCI-H720;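 note: growth inhibition of human NCI-H720 cells determined by a cell viability assay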
# Description: SANGER: Inhibition of human NCI-H720 cell growth in a cell viability assay.
# [21] = tested on: D283 Med
# Description: SANGER: Inhibition of human D-283MED cell growth in a cell viability assay.
# [22] = tested on: CGTH-W-1;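 note: growth inhibition of human CGTH-W-1 cells measured by cell viability assay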
# Description: SANGER: Inhibition of human CGTH-W-1 cell growth in a cell viability assay.
# [23] = tested on: NCI-H82;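 note: growth inhibition of NCI-H82 cells, measured with a cell viability readout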
# Description: SANGER: Inhibition of human NCI-H82 cell growth in a cell viability assay.
# [24] = tested on: HC-1;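 note: growth inhibition of HC-1 cells measured by a cell viability assay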
# Description: SANGER: Inhibition of human HC-1 cell growth in a cell viability assay.
# [25] = tested on: TGW;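 note: growth inhibition of human TGW cells, read out with a cell viability assay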
# Description: SANGER: Inhibition of human TGW cell growth in a cell viability assay.
# [26] = tested on: BB65-RCC;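 note: growth inhibition of the cell line, measured with a cell viability assay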
# Description: SANGER: Inhibition of human BB65-RCC cell growth in a cell viability assay.
# [27] = tested on: BE-13;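 note: growth inhibition of human BE-13 cells, measured with a cell viability assay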
# Description: SANGER: Inhibition of human BE-13 cell growth in a cell viability assay.
# [28] = tested on: BB30-HNC;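 note: growth inhibition of the cultured cell line, read out by a cell viability assay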
# Description: SANGER: Inhibition of human BB30-HNC cell growth in a cell viability assay.
# [29] = tested on: MFH-ino;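 note: growth inhibition of human MFH-ino cells, read out by a cell viability assay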
# Description: SANGER: Inhibition of human MFH-ino cell growth in a cell viability assay.
# [30] = tested on: MOLT-16;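 note: growth inhibition of human MOLT-16 cells, read out with a cell viability assay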
# Description: SANGER: Inhibition of human MOLT-16 cell growth in a cell viability assay.
# [31] = tested on: LS-1034
# Description: SANGER: Inhibition of human LS-1034 cell growth in a cell viability assay.
# [32] = tested on: EW-24;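 note: human EW-24 cancer cell line, growth inhibition read out via a cell viability assay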
# Description: SANGER: Inhibition of human EW-24 cell growth in a cell viability assay.
# [33] = tested on: A3-KAW;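 note: growth inhibition of human A3-KAW cells, read out with a cell viability assay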
# Description: SANGER: Inhibition of human A3-KAW cell growth in a cell viability assay.
# [34] = tested on: ES6;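 note: growth inhibition of human ES6 cells, read out with a cell viability assay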
# Description: SANGER: Inhibition of human ES6 cell growth in a cell viability assay.
# [35] = tested on: NOMO-1;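 note: growth inhibition of human NOMO-1 cells measured by a cell viability assay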
# Description: SANGER: Inhibition of human NOMO-1 cell growth in a cell viability assay.
# [36] = tested on: MSTO-211H
# Description: SANGER: Inhibition of human MSTO-211H cell growth in a cell viability assay.
# [37] = tested on: GR-ST
# Description: SANGER: Inhibition of human GR-ST cell growth in a cell viability assay.
# [38] = tested on: NCI-H1650;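 note: growth inhibition of human NCI-H1650 cells measured by a cell viability assay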
# Description: SANGER: Inhibition of human NCI-H1650 cell growth in a cell viability assay.
# [39] = tested on: TE-11;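 note: growth inhibition of human TE-11 cells, read out by a cell viability assay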
# Description: SANGER: Inhibition of human TE-11 cell growth in a cell viability assay.
# [40] = tested on: 8-MG-BA;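 note: growth inhibition of 8-MG-BA cells, read out with a cell viability assay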
# Description: SANGER: Inhibition of human 8-MG-BA cell growth in a cell viability assay.
# [41] = tested on: NEC8;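 note: growth inhibition of human NEC8 cells, read out by a cell viability assay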
# Description: SANGER: Inhibition of human NEC8 cell growth in a cell viability assay.
# [42] = tested on: OCUB-M;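 note: growth inhibition of the cancer cell line, read out through a cell viability assay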
# Description: SANGER: Inhibition of human OCUB-M cell growth in a cell viability assay.
# [43] = tested on: IST-MEL1;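 note: growth inhibition of the cell line, read out with a cell viability assay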
# Description: SANGER: Inhibition of human IST-MEL1 cell growth in a cell viability assay.
# [44] = tested on: HAL-01;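 note: growth inhibition of human HAL-01 cells, read out with a cell viability assay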
# Description: SANGER: Inhibition of human HAL-01 cell growth in a cell viability assay.
# [45] = tested on: SF-268;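 note: growth inhibition of SF-268 cells determined with a cell viability assay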
# Description: SANGER: Inhibition of human SF268 cell growth in a cell viability assay.
# [46] = tested on: IA-LM;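 note: cell viability assay measuring growth inhibition of human IA-LM cells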
# Description: SANGER: Inhibition of human IA-LM cell growth in a cell viability assay.
# [47] = tested on: J-RT3-T3-5;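 note: cell viability assay measuring growth inhibition of human J-RT3-T3-5 cells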
# Description: SANGER: Inhibition of human J-RT3-T3-5 cell growth in a cell viability assay.
# [48] = tested on: KP-N-YS;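 note: cell viability assay measuring inhibition of cell line growth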
# Description: SANGER: Inhibition of human KP-N-YS cell growth in a cell viability assay.
# [49] = tested on: A704;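 note: growth inhibition of human A704 cells, read out with a cell viability assay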
# Description: SANGER: Inhibition of human A704 cell growth in a cell viability assay.
compound,measurement,setting,value
BLEOMYCIN,IC50,[1]; gciy,12.8 µM
same,IC50,[2]; nci-h747,1210 nM
same,IC50,[3]; te-5,7.96 µM
same,IC50,[4]; colo-824,53.3 µM
same,IC50,[5]; sw 962,1950 nM
same,IC50,[6]; sk-mel-1,260 µM
same,IC50,[7]; nci-h1299,0.108 µM
same,IC50,[8]; nb12,82.4 µM
same,IC50,[9]; ovcar-4,4.41 µM
same,IC50,[10]; sk-n-fi,2.1 mM
same,IC50,[11]; nci-h1395,384 µM
same,IC50,[12]; l-363,187 µM
same,IC50,[13]; l-428,52.3 µM
same,IC50,[14]; a101d,0.62 µM
same,IC50,[15]; goto,550 nM
same,IC50,[16]; es4,38.3 nM
same,IC50,[17]; hcc2157,93.4 µM
same,IC50,[18]; mpp-89,39.9 µM
same,IC50,[19]; nb6,430 µM
same,IC50,[20]; nci-h720,103 µM
same,IC50,[21]; d283 med,3.81 µM
same,IC50,[22]; cgth-w-1,4.3 µM
same,IC50,[23]; nci-h82,225 µM
same,IC50,[24]; hc-1,993 nM
same,IC50,[25]; tgw,65.8 µM
same,IC50,[26]; bb65-rcc,21.4 µM
same,IC50,[27]; be-13,399 nM
same,IC50,[28]; bb30-hnc,16.3 nM
same,IC50,[29]; mfh-ino,2.65 nM
same,IC50,[30]; molt-16,29.5 µM
same,IC50,[31]; ls-1034,35.4 µM
same,IC50,[32]; ew-24,95.3 µM
same,IC50,[33]; a3-kaw,717 nM
same,IC50,[34]; es6,0.406 µM
same,IC50,[35]; nomo-1,4.2 µM
same,IC50,[36]; msto-211h,149 µM
same,IC50,[37]; gr-st,23.1 µM
same,IC50,[38]; nci-h1650,499 nM
same,IC50,[39]; te-11,6.08 µM
same,IC50,[40]; 8-mg-ba,1.48 µM
same,IC50,[41]; nec8,26.9 nM
same,IC50,[42]; ocub-m,1810 nM
same,IC50,[43]; ist-mel1,280 nM
same,IC50,[44]; hal-01,0.453 nM
same,IC50,[45]; sf-268,1320 nM
same,IC50,[46]; ia-lm,3.4 µM
same,IC50,[47]; j-rt3-t3-5,712 nM
same,IC50,[48]; kp-n-ys,30.3 µM
same,IC50,[49]; a704,10.6 µM
O=C(O)c1ccc(-c2c[nH]c3ncc(-c4ccccc4)cc23)cc1C1CCCC1 [GSK-650394],IC50,"[1]; Homo sapiens, GCIY",> 16 µM
same,IC50,"[2]; Homo sapiens, NCI-H747",> 16000 nM
same,IC50,"[3]; Homo sapiens, TE-5",> 16 µM
same,IC50,"[4]; Homo sapiens, COLO-824",> 16 µM
same,IC50,"[5]; Homo sapiens, SW 962",> 16000 nM
same,IC50,"[6]; Homo sapiens, SK-MEL-1",> 16 µM
same,IC50,"[7]; Homo sapiens, NCI-H1299",5.99 µM
same,IC50,"[8]; Homo sapiens, NB12",> 16 µM
same,IC50,"[9]; Homo sapiens, OVCAR-4",> 16 µM
same,IC50,"[10]; Homo sapiens, SK-N-FI",> 0.016 mM
same,IC50,"[11]; Homo sapiens, NCI-H1395",> 16 µM
same,IC50,"[12]; Homo sapiens, L-363",> 16 µM
same,IC50,"[13]; Homo sapiens, L-428",> 16 µM
same,IC50,"[14]; Homo sapiens, A101D",9.27 µM
same,IC50,"[15]; Homo sapiens, GOTO",> 16000 nM
same,IC50,"[16]; Homo sapiens, ES4",4060 nM
same,IC50,"[17]; Homo sapiens, HCC2157",13.5 µM
same,IC50,"[18]; Homo sapiens, MPP-89",9.27 µM
same,IC50,"[19]; Homo sapiens, NB6",> 16 µM
same,IC50,"[20]; Homo sapiens, NCI-H720",> 16 µM
same,IC50,"[21]; Homo sapiens, D283 Med",> 16 µM
same,IC50,"[22]; Homo sapiens, CGTH-W-1",2.1 µM
same,IC50,"[23]; Homo sapiens, NCI-H82",> 16 µM
same,IC50,"[24]; Homo sapiens, HC-1",> 16000 nM
same,IC50,"[25]; Homo sapiens, TGW",> 16 µM
same,IC50,"[26]; Homo sapiens, BB65-RCC",> 16 µM
same,IC50,"[27]; Homo sapiens, BE-13",> 16000 nM
same,IC50,"[28]; Homo sapiens, BB30-HNC",2330 nM
same,IC50,"[29]; Homo sapiens, MFH-ino",1990 nM
same,IC50,"[30]; Homo sapiens, MOLT-16",3.52 µM
same,IC50,"[31]; Homo sapiens, LS-1034",> 16 µM
same,IC50,"[32]; Homo sapiens, EW-24",> 16 µM
same,IC50,"[33]; Homo sapiens, A3-KAW",> 16000 nM
same,IC50,"[34]; Homo sapiens, ES6",8.67 µM
same,IC50,"[35]; Homo sapiens, NOMO-1",> 16 µM
same,IC50,"[36]; Homo sapiens, MSTO-211H",> 16 µM
same,IC50,"[37]; Homo sapiens, GR-ST",> 16 µM
same,IC50,"[38]; Homo sapiens, NCI-H1650",> 16000 nM
same,IC50,"[39]; Homo sapiens, TE-11",> 16 µM
same,IC50,"[40]; Homo sapiens, 8-MG-BA",15.6 µM
same,IC50,"[41]; Homo sapiens, NEC8",> 16000 nM
same,IC50,"[42]; Homo sapiens, OCUB-M",2790 nM
same,IC50,"[43]; Homo sapiens, IST-MEL1",> 16000 nM
same,IC50,"[44]; Homo sapiens, HAL-01",> 16000 nM
same,IC50,"[45]; Homo sapiens, SF-268",> 16000 nM
same,IC50,"[46]; Homo sapiens, IA-LM",4.12 µM
same,IC50,"[47]; Homo sapiens, J-RT3-T3-5",> 16000 nM
same,IC50,"[48]; Homo sapiens, KP-N-YS",4.39 µM
same,IC50,"[49]; Homo sapiens, A704",> 16 µM
